Experimental findings from publication PMC6270562, “Design, Synthesis and Trypanocidal Evaluation of Novel 1,2,4-Triazoles-3-thiones Derived from Natural Piperine” (Molecules, 2013) are described below.

Molecules are shown by their SMILES.

In series [1] the test system is epimastigote form of Y strain T. cruzi. The series is described as follows: Anti-epimastigote effect (direct count of live epimastigotes after 7 days). It counts as cell-based, Trypanosoma cruzi. Conditions: mean of triplicate. As to the method:
(§1) Trypanosoma cruzi (Y strain) was obtained from the Fundação Oswaldo Cruz (Rio de Janeiro, Brazil) culture collection, and maintained in the Laboratory of Glycobiology (UFRJ, Rio de Janeiro, Brazil) facilities. Epimastigote forms were maintained by weekly transfers at 28 °C in brain-heart-infusion (BHI) medium (Acumedia, Lansing, MI, USA), supplemented with 10 mg of hemin (Sigma, St. Louis, MO, USA), 20 mg of folic acid L^−1 (Sigma) and 10% heat-inactivated fetal calf serum (FCS) (BHI-FCS medium, Gibco, Grand Island, NY, USA). Tissue culture-derived trypomastigotes were obtained after infection of confluent monolayers of Vero cells (kidney epithelial cells extracted from African green monkeys) with blood trypomastigotes (Y strain) to establish the intracellular cycle and maintained in RPMI 1640 medium containing 10% FCS under an atmosphere of 5% CO2 at 37 °C. The tissue culture-derived trypomastigotes were used to infect Mø in vitro to evaluate the toxic effects of the drugs.
For evaluation of the anti-epimastigote effects, parasites (1 × 10^5 cells per mL) were subcultured in the absence or presence of different concentrations (0.5 to 25 μg.mL^−1) of the drugs 9a–9m, from a 5 mg mL^−1 stock solution in DMSO (Sigma). The parasites were incubated in BHI-FCS medium with or without drugs in a final volume of 1.0 mL in 24-well plates (TPP, Trasadingen, Switzerland), and after 7 days, the toxic effects of the drugs were quantified by the direct count of the live epimastigotes in a Neubauer chamber.
(§2) The 50% inhibitory concentrations (IC50) values shown in the Table 1 represent the mean of experiments carried out in triplicate. The IC50 of all compounds were determined by linear regression analysis using the program IGOR Pro 2.03 (WaveMetrics, Inc, Lake Oswego, OR, USA).

In series [2] the test system is amastigotes of T. cruzi. The series is described as follows: Anti-amastigote effect in infected peritoneal macrophages. It counts as cell-based. Conditions: Trypanosoma cruzi, Peritoneal macrophage, in Mus musculus; T. cruzi Y strain, intracellular amastigotes in BALB/c peritoneal Mø, 0.5-5.0 µg mL−1; ≥ = maximum concentration allowed by trypan blue exclusion assay. As for the experimental part: as §1
Resident peritoneal Mø from non-infected BALB/c mice were harvested and cultured as described above. Adhered Mø were infected with T. cruzi trypomastigotes at a 10:1 parasite/macrophage ratio and incubated at 37 °C under 5% CO2 for 1 h. […] After, monolayers were washed with PBS at 37 °C, fixed in methanol, and stained with Giemsa (Sigma). The amastigote survival was determined by the counting of 200 cells in triplicate, the percentage of infected cells was analyzed, as well as the number of amastigotes per macrophage and the endocytic index of the infected cells.
as §2

In series [3] the test system is peritoneal macrophages (Mø) from Balb/c mice. The series is described as follows: Cytotoxicity to macrophages (trypan blue dye exclusion assay). It is filed as cell-based. Particulars: murine macrophages, 0.5-5 μg mL−1, 72 h. As to the method:
The evaluation of the toxic effects of the compounds was carried out as previously described. Murine peritoneal Mø were seeded (1 × 10^6 cells per well) in 24-well plates with 1 mL of RPMI medium containing 10% FCS. […] The five drugs were assayed in increasing concentrations (0.5, 1.0, 2.5, 5.0 µg mL^−1). Afterwards, the cells were washed with PBS, and RPMI was added to the culture before the addition of vital dye trypan blue in a final concentration of 0.01%. The toxic effects of the drugs were monitored by the count of 200 cells in a Neubauer chamber where plasma membrane permeability was evaluated.

Consider `CCCCCCn1c(/C=C/C=C/c2ccc3c(c2)OCO3)n[nH]c1=S` [9e, 5-[(1E,3E)-4-(1,3-Benzodioxol-5-yl)buta-1,3-dien-1-yl]-4-hexyl-2,4-dihydro-3H-1,2,4-triazole-3-thione], for which the melting point was 124 to 125 °C. For the same compound, in series [1] (Trypanosoma cruzi, 168 h), the concentration for half-maximal inhibition (IC50) is less than 30 µM. Besides, the IC50 in series [1] stood at 15.4 ± 4.47 µM. Also, the IC50 in series [2] was not below 14 µM.

For the compound `S=c1[nH]nc(/C=C/C=C/c2ccc3c(c2)OCO3)n1-c1ccccc1` [9g, 5-[(1E,3E)-4-(1,3-Benzodioxol-5-yl)buta-1,3-dien-1-yl]-4-phenyl-2,4-dihydro-3H-1,2,4-triazole-3-thione], the melting point lay in the range of 244 to 245 °C. In series [1] (Trypanosoma cruzi, 168 h), this compound came in with an IC50 of 39 ± 8.88 µM.

`S=c1[nH]nc(/C=C/C=C/c2ccc3c(c2)OCO3)n1Cc1ccccc1` [9h, 5-[(1E,3E)-4-(1,3-Benzodioxol-5-yl)buta-1,3-dien-1-yl]-4-benzyl-2,4-dihydro-3H-1,2,4-triazole-3-thione] showed a melting point of 187 to 188 °C. The compound also registered an IC50 in series [1] (Trypanosoma cruzi, 168 h) of 39.4 ± 6.88 µM.

Take `S=c1[nH]nc(/C=C/C=C/c2ccc3c(c2)OCO3)n1C1CCCCC1` [9f, 5-[(1E,3E)-4-(1,3-Benzodioxol-5-yl)buta-1,3-dien-1-yl]-4-cyclohexyl-2,4-dihydro-3H-1,2,4-triazole-3-thione]: the melting point lay in the range of 192 to 194 °C. Also, the IC50 in series [1] (Trypanosoma cruzi, 168 h) is less than 30 µM. The compound also displayed an IC50 in series [1] of 18.3 ± 5.21 µM. In series [2], the half-inhibitory concentration (IC50) amounted to 8.87 ± 2.39 µM. The “toxicity on host cells” value in series [3] is “low toxic effects”.

As for `O=C(Cn1ccnc1[N+](=O)[O-])NCc1ccccc1` [Benznidazole, benznidazole, reference compound], the IC50 in series [1] (Trypanosoma cruzi, 168 h) was determined as 2.2 ± 0.16 µM; in series [2], 2.5 ± 0.21 µM.

For the compound `CSc1ccc(-n2c(/C=C/C=C/c3ccc4c(c3)OCO4)n[nH]c2=S)cc1` [9k, 5-[(1E,3E)-4-(1,3-Benzodioxol-5-yl)buta-1,3-dien-1-yl]-4-[4-(methylthio)phenyl]-2,4-dihydro-3H-1,2,4-triazole-3-thione], the melting point lay in the range of 209 to 211 °C. In addition, in series [1] (Trypanosoma cruzi, 168 h), half-maximal inhibition (IC50) required 40.8 ± 10.5 µM.

Turning to `CCCCn1c(/C=C/C=C/c2ccc3c(c2)OCO3)n[nH]c1=S` [9d, 5-[(1E,3E)-4-(1,3-Benzodioxol-5-yl)buta-1,3-dien-1-yl]-4-butyl-2,4-dihydro-3H-1,2,4-triazole-3-thione], the melting point lay within 173 to 174 °C. Besides, the IC50 in series [2] was not below 15.2 µM.

In the case of `COc1cccc(-n2c(/C=C/C=C/c3ccc4c(c3)OCO4)n[nH]c2=S)c1` [9l, 5-[(1E,3E)-4-(1,3-Benzodioxol-5-yl)buta-1,3-dien-1-yl]-4-(3-methoxyphenyl)-2,4-dihydro-3H-1,2,4-triazole-3-thione], the melting point lay within 248 to 249 °C. For the same compound, it took 48 ± 6.06 µM to reach half-maximal inhibition in series [1] (Trypanosoma cruzi, 168 h) (IC50).

In turn, `FC(F)(F)c1ccc(-n2c(/C=C/C=C/c3ccc4c(c3)OCO4)n[nH]c2=S)cc1` [9m, 5-[(1E,3E)-4-(1,3-Benzodioxol-5-yl)buta-1,3-dien-1-yl]-4-[4-(trifluoromethyl)phenyl]-2,4-dihydro-3H-1,2,4-triazole-3-thione] registered a melting point of 232 to 233 °C. The compound further gave an IC50 in series [1] (Trypanosoma cruzi, 168 h) of less than 30 µM. The compound further had an IC50 in series [1] of 18.5 ± 3.95 µM. The compound further yielded an IC50 in series [2] of 9.59 ± 2.87 µM.

Compound `COc1cc(-n2c(/C=C/C=C/c3ccc4c(c3)OCO4)n[nH]c2=S)cc(OC)c1OC` [9i, 5-[(1E,3E)-4-(1,3-Benzodioxol-5-yl)buta-1,3-dien-1-yl]-4-(3,4,5-trimethoxyphenyl)-2,4-dihydro-3H-1,2,4-triazole-3-thione] displayed a melting point of 242 to 243 °C. In series [1] (Trypanosoma cruzi, 168 h), this compound displayed an IC50 of 35.3 ± 6.26 µM.

As for `CC(C)(C)n1c(/C=C/C=C/c2ccc3c(c2)OCO3)n[nH]c1=S` [9j, 5-[(1E,3E)-4-(1,3-Benzodioxol-5-yl)buta-1,3-dien-1-yl]-4-tert-butyl-2,4-dihydro-3H-1,2,4-triazole-3-thione], the melting point was 183 to 184 °C. This compound also returned an IC50 in series [1] (Trypanosoma cruzi, 168 h) of 50.8 ± 10.6 µM.

`Cn1c(/C=C/C=C/c2ccc3c(c2)OCO3)n[nH]c1=S` [9a, 5-[(1E,3E)-4-(1,3-Benzodioxol-5-yl)buta-1,3-dien-1-yl]-4-methyl-2,4-dihydro-3H-1,2,-triazole-3-thione] came in with a melting point of 220 to 222 °C. This compound returned an IC50 in series [1] (Trypanosoma cruzi, 168 h) of 44.2 ± 7.3 µM.

In turn, `CCn1c(/C=C/C=C/c2ccc3c(c2)OCO3)n[nH]c1=S` [9b, 5-[(1E,3E)-4-(1,3-Benzodioxol-5-yl)buta-1,3-dien-1-yl]-4-ethyl-2,4-dihydro-3H-1,2,4-triazole-3-thione] returned a melting point of 208 to 209 °C. In series [1] (Trypanosoma cruzi, 168 h), the half-inhibitory concentration (IC50) is 50.2 ± 10.8 µM.

As to `CC(C)n1c(/C=C/C=C/c2ccc3c(c2)OCO3)n[nH]c1=S` [9c, 5-[(1E,3E)-4-(1,3-Benzodioxol-5-yl)buta-1,3-dien-1-yl]-4-isopropyl-2,4-dihydro-3H-1,2,4-triazole-3-thione], the melting point was 210 to 211 °C. Also, the IC50 in series [1] (Trypanosoma cruzi, 168 h) is less than 30 µM. Moreover, half-maximal inhibition in series [1] (IC50) was put at 27 ± 6.98 µM. The compound also had an IC50 in series [2] of 11.1 ± 1.26 µM.
